Data published in article PMC6787163, “Systematic Dual Targeting of Dendritic Cell C-Type Lectin Receptor DC-SIGN and TLR7 Using a Trifunctional Mannosylated Antigen” (Frontiers in Chemistry, 2019).
Where “and” joins values, the source holds several entries; their conditions need not be identical. Equal entries are not always repeated. Entries after “also recorded” stand apart in the source; their conditions may differ. Where two headings read alike, the source gives them in different places.

Experiments:
DC-SIGN S-ECD = biological target: T1, DC-SIGN S-ECD (Homo sapiens, UniProt Q9NNX6); assay: SPR direct interaction assay on oriented DC-SIGN S-ECD surface; type: binding; details: for Kd: SPR direct interaction, oriented tetrameric DC-SIGN ECD surface, apparent Kd
T1 construct: The ECD of DC-SIGN (residues 66–404) was overexpressed and purified as previously described; made in house
T1 sequence (Q9NNX6 66-404): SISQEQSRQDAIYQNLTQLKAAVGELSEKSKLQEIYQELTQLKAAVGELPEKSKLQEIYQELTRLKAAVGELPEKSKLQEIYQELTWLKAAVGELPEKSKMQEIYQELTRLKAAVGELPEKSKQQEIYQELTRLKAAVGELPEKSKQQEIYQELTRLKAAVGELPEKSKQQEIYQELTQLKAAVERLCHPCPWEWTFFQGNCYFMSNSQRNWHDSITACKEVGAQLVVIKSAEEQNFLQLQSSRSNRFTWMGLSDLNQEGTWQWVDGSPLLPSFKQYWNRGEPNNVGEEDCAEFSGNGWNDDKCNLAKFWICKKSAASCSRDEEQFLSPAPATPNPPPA
In short: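 Tetrameric DC-SIGN ECD carrying an N-terminal StrepTagII was captured in oriented form on streptactin (2,500–3,000 RU), with a streptactin-only control cell. Glycoclusters were injected at increasing concentrations (30 μL/min) in Tris pH 8 buffer with 150 mM NaCl and 4 mM CaCl2. Apparent Kd from a 1:1 fit reflects binding to the whole surface.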

[1] = tested on: moDCs co-cultured with gp100-specific T cells; assay: Antigen presentation by moDCs to gp100-specific T cells (IFNγ ELISA); type: cell-based, human; details: 20 μM conjugate, 30 min pulse, overnight co-culture
Experimental: Lastly, antigen presentation was determined in a human T cell antigen presentation model (Figure 5D). In this assay, the potency of DCs to present the internalized gp100 antigen on the cell surface to gp100-specific T cells is analyzed. The IFNγ secretion of activated T cells upon recognition of the cell surface presented gp100 is measured. Day 5 moDCs were stimulated for 30 min, as the internalization was relatively fast, with the glycopeptides at the assay-optimized concentration of 20 μM (Supplementary Figure 1H). The constructs were washed away before overnight co-culture with gp100-specific T cells. […] The obstruction of antigen presentation was primarily seen with the B6-gp100-TLR7L contradicting the assumption that the best binding constructs will simultaneously maximize T cell activation. […]
Immature day 5 moDCs were seeded in 96-well plates (Greiner) at 50·10^3 cells/well and incubated with 20 μM of the different gp100-conjugates in the presence or absence of the TLR4 ligand LPS (10 ng/mL) or the TLR7 ligand Imiquimod (2.5 μg/mL). […] IFNγ in the supernatant was measured by sandwich ELISA according to the manufacturer's protocol (Biosource), and measured by spectrophotometric analysis on the iMarkTM Microplate Absorbance Reader (Bio-RAD) at 450 nm.

DC-SIGN on moDC = assay: Binding of biotinylated mannoside library to moDCs by flow cytometry; type: cell-based, human; details: 10 μM biotinylated cluster, 30 min at 4°C, streptavidin staining
Experimental: Next, we assessed the binding of our clusters to cellular DC-SIGN using moDCs (Figure 3B, Supplementary Figure 1B). To this end, binding of the clusters a1–a6, b1–b6, c1–c6, d1–d6, and e1–e6, decorated with a biotin handle, was determined by flow cytometry. Clusters were bound to moDCs for 30 min at 4°C. By staining using fluorophore-conjugated streptavidin and washing at 4°C, the bound clusters could be quantified by flow cytometry. […] In control experiments ligand binding to DC-SIGN was inhibited using a blocking anti-DC-SIGN antibody (Supplementary Figure 1C).
Approximately 10^5 day 5 moDCs were washed and resuspended in 100 μL culture medium (pre-cooled to 4°C). 20 μg/mL AZN-D1 (anti-DC-SIGN, in house Geijtenbeek et al., [2002]) or purified mouse anti-human CD206 antibody (Clone 19.2, BD Bioscience) was added to the moDCs and pre-incubated for 45 min on ice. Subsequently, 10 μM of the biotinylated mannoside clusters or 1 μg/mL of Lewis^Y-conjugated polyacrylamide (positive control) was added, and incubated for 30 min at 4°C. Cells were then washed with pre-cooled PBS (4°C), and stained with Alexa647-labeled streptavidin (Invitrogen^TM) in PBS supplemented with 0.5% BSA and 0.02% NaN3 (PBA) for 30 min at 4°C. Upon washing in ice-cold PBA and fixation in PBS with 0.5% PFA, the fluorescence was measured by flow cytometry (CyAn™ ADP with Summit™ Software), and further analyzed using FlowJo v10.

moDCs = assay: Internalization of biotinylated hexavalent clusters by moDCs (flow cytometry); type: cell-based, human
In short: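 Immature day-5 moDCs (half gently pre-fixed with 1% PFA) loaded with 20 μM biotinylated clusters for 1 h on ice, washed, then shifted to 37°C; samples taken at time points. Surface retention read by Streptavidin-Alexa647 flow cytometry; parallel run used clusters pre-complexed with pHrodo-Avidin (2:1, 15 min, 37°C).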

Row | binding affinity for DC-SIGN relative to B6 (fold lower) (DC-SIGN S-ECD) [fold] | Kd (DC-SIGN S-ECD; read-out: Kdapp) | binding to DC-SIGN on moDC (DC-SIGN on moDC) | SMILES | decrease of DC-SIGN affinity on conjugation to gp100 or gp100-TLR7L (factor) (DC-SIGN S-ECD; Kd-app of conjugate vs unconjugated cluster) | Kd (DC-SIGN S-ECD; Kdapp) [nM] | antigen presentation (IFNγ release of activated gp100-specific T cells) [1] | internalization by moDCs (loss of surface streptavidin signal) (moDCs; 20 μM cluster, live moDCs) | uptake by immature moDCs (moDCs; after 30 min at 37°C, 20 μM cluster) [%] | internalization by moDCs (pHrodo-avidin fluorescence increase) (moDCs; clusters pre-complexed with pH-sensitive dye)
1 |  |  |  | CCCCOc1nc(N)c2[nH]c(=O)n(Cc3ccc(C(=O)NCCOCCOCC(=O)NCCCC[C@H](NC(=O)CNC(=O)[C@H](CCCNC(=N)N)NC(=O)[C@H](Cc4c[nH]c5ccccc45)NC(=O)[C@H](CC)NC(=O)[C@H](CC(=O)O)NC(=O)[C@H](CC(C)C)NC(=O)[C@H](CCCNC(=N)N)NC(=O)[C@H](CCC(N)=O)NC(=O)[C@H](C)NC(=O)[C@H](CCC(=O)O)NC(=O)[C@@H](NC(=O)[C@H](Cc4c[nH]c5ccccc45)NC(=O)[C@H](CCC(=O)O)NC(=O)[C@@H]4CCCN4C(=O)[C@H](Cc4ccc(O)cc4)NC(=O)[C@H](CC(C)C)NC(=O)[C@H](CCC(N)=O)NC(=O)[C@H](CCCNC(=N)N)NC(=O)[C@H](CC(N)=O)NC(=O)[C@H](C)NC(=O)[C@@H](NC(=O)[C@@H](NC(=O)[C@@H]4CCCN4C(=O)CNC(=O)[C@@H]4CCCN4C(=O)[C@H](CCC(=O)O)NC(=O)[C@H](CC(C)C)NC(=O)[C@H](Cc4ccc(O)cc4)NC(=O)[C@@H](NC(=O)[C@H](Cc4c[nH]cn4)NC(=O)[C@@H](NC(=O)[C@@H](NC(=O)[C@H](CCCCn4cc(CCC(=O)NCCCC[C@H](NC(=O)CNC(=O)[C@H](CCCCn5cc(CO[C@H]6O[C@H](CO[C@H]7O[C@H](CO)[C@@H](O)[C@H](O)[C@@H]7O)[C@@H](O)[C@H](O[C@H]7O[C@H](CO)[C@@H](O)[C@H](O)[C@@H]7O)[C@@H]6O)nn5)NC(=O)[C@H](CCCCn5cc(CO[C@H]6O[C@H](CO[C@H]7O[C@H](CO)[C@@H](O)[C@H](O)[C@@H]7O)[C@@H](O)[C@H](O[C@H]7O[C@H](CO)[C@@H](O)[C@H](O)[C@@H]7O)[C@@H]6O)nn5)NC(=O)[C@H](CCCCn5cc(CO[C@H]6O[C@H](CO[C@H]7O[C@H](CO)[C@@H](O)[C@H](O)[C@@H]7O)[C@@H](O)[C@H](O[C@H]7O[C@H](CO)[C@@H](O)[C@H](O)[C@@H]7O)[C@@H]6O)nn5)NC(=O)[C@H](CCCCn5cc(CO[C@H]6O[C@H](CO[C@H]7O[C@H](CO)[C@@H](O)[C@H](O)[C@@H]7O)[C@@H](O)[C@H](O[C@H]7O[C@H](CO)[C@@H](O)[C@H](O)[C@@H]7O)[C@@H]6O)nn5)NC(=O)[C@H](CCCCn5cc(CO[C@H]6O[C@H](CO[C@H]7O[C@H](CO)[C@@H](O)[C@H](O)[C@@H]7O)[C@@H](O)[C@H](O[C@H]7O[C@H](CO)[C@@H](O)[C@H](O)[C@@H]7O)[C@@H]6O)nn5)NC(=O)[C@H](CCCCn5cc(CO[C@H]6O[C@H](CO[C@H]7O[C@H](CO)[C@@H](O)[C@H](O)[C@@H]7O)[C@@H](O)[C@H](O[C@H]7O[C@H](CO)[C@@H](O)[C@H](O)[C@@H]7O)[C@@H]6O)nn5)NC(C)=O)C(N)=O)nn4)NC(C)=O)C(C)C)[C@@H](C)O)[C@@H](C)O)C(C)C)[C@@H](C)O)[C@@H](C)O)C(N)=O)cc3)c2n1 [E6-gp100-TLR7L] | about 10 | 31000 | increased T cell activation; also recorded: strongest antigen presentation |  |  | 
2 | 3 | 2780 nM and 2700 nM | did not observe an increase in binding | CC(=O)N[C@@H](CCCCn1cc(CO[C@H]2O[C@H](CO[C@H]3O[C@H](CO)[C@@H](O)[C@H](O)[C@@H]3O)[C@@H](O)[C@H](O[C@H]3O[C@H](CO)[C@@H](O)[C@H](O)[C@@H]3O)[C@@H]2O)nn1)C(=O)N[C@@H](CCCCn1cc(CO[C@H]2O[C@H](CO[C@H]3O[C@H](CO)[C@@H](O)[C@H](O)[C@@H]3O)[C@@H](O)[C@H](O[C@H]3O[C@H](CO)[C@@H](O)[C@H](O)[C@@H]3O)[C@@H]2O)nn1)C(=O)N[C@@H](CCCCn1cc(CO[C@H]2O[C@H](CO[C@H]3O[C@H](CO)[C@@H](O)[C@H](O)[C@@H]3O)[C@@H](O)[C@H](O[C@H]3O[C@H](CO)[C@@H](O)[C@H](O)[C@@H]3O)[C@@H]2O)nn1)C(=O)N[C@@H](CCCCn1cc(CO[C@H]2O[C@H](CO[C@H]3O[C@H](CO)[C@@H](O)[C@H](O)[C@@H]3O)[C@@H](O)[C@H](O[C@H]3O[C@H](CO)[C@@H](O)[C@H](O)[C@@H]3O)[C@@H]2O)nn1)C(=O)N[C@@H](CCCCn1cc(CO[C@H]2O[C@H](CO[C@H]3O[C@H](CO)[C@@H](O)[C@H](O)[C@@H]3O)[C@@H](O)[C@H](O[C@H]3O[C@H](CO)[C@@H](O)[C@H](O)[C@@H]3O)[C@@H]2O)nn1)C(=O)N[C@@H](CCCCn1cc(CO[C@H]2O[C@H](CO[C@H]3O[C@H](CO)[C@@H](O)[C@H](O)[C@@H]3O)[C@@H](O)[C@H](O[C@H]3O[C@H](CO)[C@@H](O)[C@H](O)[C@@H]3O)[C@@H]2O)nn1)C(=O)NCC(=O)N[C@@H](CCCCN)C(N)=O [E6] |  |  |  | remains longer at the surface | 25 | endocytosed at lower rate
